These are literature values, as cited in patent publication US20250302745A1, “COMPOSITIONS COMPRISING VANCOMYCIN” (Arecor Limited, priority 2022, published 2025).

The series concerns animal. Particulars: excipients of VancoReady; black box warning.

Take `CC(=O)N[C@H](C)C(=O)O` [N-acetyl-D-alanine]: the “finding in animal reproductive studies” value is given as “cause fetal malformations”.

For PEG400, the “finding in animal reproductive studies” value is “cause fetal malformations”.
